The test concerns ArBNR2(G272). The experiment in a line: Luminescence (GFP-aequorin Ca2+) assay, CHO-K1 cells coexpressing ArBNR2(G272) and Gqs5. Format: cell-based, Asterias rubens. The settings on record: words, up to 10^-5 M. From the text: Having identified ArBN and ArBN5-14 as peptides that are naturally derived from ArBNP in A. rubens, we then sought to identify receptors that these peptides may act as ligands for. BLAST analysis of transcriptome/genome data identified eleven candidate BN-type receptors, which we refer to as ArBNR1-11. Homologs of this family of proteins were also identified in other echinoderms. […] Accordingly, a modified form of ArBNR2 in which the glutamate residue at position 272 is substituted with glycine, ArBNR2(G272), also has seven predicted transmembrane domains (SI Appendix, SI Methods). […]
domains and other structural features (9). The topology of […] of the potential A. rubens BN-type receptors as predicted by Protter V1.0 comprised seven transmembrane domains, as expected for a GPCR. However, the topology of the proteins encoded by contig 1110162 and contig 1110464 comprised only six and four transmembrane domains, respectively. Analysis of the transcript […]
To determine the complete open reading frame of ArBNR2, contig 1110162 was used as a query for blastx analysis of A. rubens genome sequence data on NCBI and accession no. […] The protein (XP_033631283.1 referred to henceforth as ArBNR2) was analysed using […]
Having discovered that MgBNR2 has the expected topology for a GPCR when analysed using both Protter and DeepTMHMM, we then compared its sequence to ArBNR2. […]

In the case of “EPMPSSLALYIANLSP-NH2 [ArBNP65-81, C-terminally amidated 16-residue peptide predicted to be derived from residues 65 to 81 of ArBNP]”, the peptide-induced luminescence entry was “did not trigger luminescence”. The result for “NYNRVFGPTY-NH2 [ArBN5-14, C-terminally amidated 10-residue peptide corresponding to the C-terminal region of ArBN]” reads “did not trigger luminescence”.

The record behind these values is publication PMC12002301, “Discovery and functional characterization of a bombesin-type neuropeptide signaling system in an invertebrate” (Proceedings of the National Academy of Sciences of the …, 2025).
